Results published in patent US6235516A, “Biocatalysts with amine acylase activity” (Novartis AG, priority 1996, dated 2001).
Several values for one entry are separate records, joined by “and”; a condition that tells them apart may be missing. Equal values may be shown once. Read-outs that look alike come from different tables or passages of the source.

What was measured:
[1] = biological target: Ac6-acylase (Rhodococcus (subgen. Prescottella) equi, UniProt A0A3S5Y3Z2); assay: Activity of the Ac6-acylase in the presence of potential enzyme activators and inhibitors; format: biochemical; details: for activity at 10000 µM: read-out: Relative activity (%)
Sequence of Ac6-acylase (A0A3S5Y3Z2 entry or part of it): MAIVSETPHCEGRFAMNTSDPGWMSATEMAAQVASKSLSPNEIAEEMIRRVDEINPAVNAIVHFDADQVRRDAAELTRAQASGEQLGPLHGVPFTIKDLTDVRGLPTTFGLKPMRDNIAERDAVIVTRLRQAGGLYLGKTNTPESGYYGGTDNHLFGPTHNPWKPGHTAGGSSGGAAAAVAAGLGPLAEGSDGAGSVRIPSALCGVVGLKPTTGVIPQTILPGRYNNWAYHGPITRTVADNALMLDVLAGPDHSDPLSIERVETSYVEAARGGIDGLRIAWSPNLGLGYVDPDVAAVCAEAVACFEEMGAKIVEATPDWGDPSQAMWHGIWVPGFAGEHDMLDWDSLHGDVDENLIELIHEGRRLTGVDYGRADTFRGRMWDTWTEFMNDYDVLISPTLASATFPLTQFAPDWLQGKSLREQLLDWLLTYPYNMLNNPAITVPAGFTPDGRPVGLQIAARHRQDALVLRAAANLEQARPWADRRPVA
Protocol: After an incubation at 30° C. for a time period allowing the liberation of 0 to 3 mM of 1-phenylethylamine 400 μl of ice cooled acetone are added to stop the reaction. The tube is mixed vigorously, put on ice for about 15 min., and then is centrifuged for 4 min at 11500 rpm in a Biofuge 15 (Heraeus Sepatech, Osterode Germany). The supernatant is subjected to quantitative HPLC analysis. If activity assays contain crude extracts of cells grown in the presence of N-acetyl-1-phenylethylamine a control assay without substrate has to be prepared in parallel in order to determine the 1-phenylethylamine content of the crude extract. For HPLC analysis sample volumes of 20 μl are injected onto a RP-8 column (LiChroCART 125-4, LiChrospher 100 RP-8 ([…]), guard column: LiChroCART 4-4, LiChrospher 100 RP-8 ([…]), Merck Co., Darmstadt Germany). The following gradient with a flow rate of 1.25 ml/min. is applied for the separation of the substrate N-acetyl-1-phenylethylamine and the product 1-phenylethylamine:
One unit (U) of acylase activity is defined as the amount of enzyme catalyzing the liberation of 1 μmol of 1-phenylethylamine per minute. The acylase concentration in the samples is calculated according to the following formula: […]
In the presence of various potential enzyme activators and inhibitors activity assays are performed according to the scheme given in example 1 by applying the following conditions and final concentrations:
(S)-N-acetyl-1-phenylethylamine 20 mM
Purified acylase from example 4 c 0.02 U/ml
Incubation time 120 min.

[2] = test system: Rhodococcus globerulus K1/1 acylase; format: biochemical
Protocol: The standard assay for K1/1-acylase activity used for monitoring the purification and for the enzymological characterization is performed by mixing 20 μl of an enzyme sample with 380 μl of a 5.55 mM solution of (S)-2-acetylamino-1-phenyl-4-pentene in 69 mM potassium phosphate buffer, pH 7, and incubating at 23° C. The dilution of the acylase and the incubation time are chosen so that not more than 1.3 mM of product are formed. The reaction is stopped by addition of 800 μl ice cold methanol. After centrifugation for 4 min at 11500 rpm in a Biofuge 15 (Heraeus Sepatech, Osterode, Germany) the supernatant is subjected to quantitative HPLC analysis (see example 1).
27.1. Activity of the Rhodococcus globerulus K1/1 acylase in the presence of potential enzyme activators and inhibitors: […]

[3] = test system: AcR5b-acylase; assay: Activity of the AcR5b-acylase in the presence of potential enzyme activators and inhibitors; format: biochemical, Arthrobacter aurescens AcR5b; details: for Relative activity (%), EDTA reactivation: preincubated with 1 mM metal cation, then 10 mM EDTA for 30 min
Protocol: 40 μl of the concentrated enzyme solution from example 4d) are mixed with 360 μl of 1 and 10 mM solutions of the potential activators/inhibitors in 100 mM Tris-HCl buffer, pH 8, and incubated at room temperature for 30 min. These preincubated acylase solutions are used as the enzyme source for activity assays in the presence of the activator/inhibitor (see example 8) in the concentration used for the preincubation. The incubation time is 12 min. For the EDTA reactivation the acylase is first preincubated with the metal cation at 1 mM concentration (see above). After adding EDTA to a final concentration of 10 mM in form of a 110 mM solution in 100 mM Tris-HCl, pH 8, the acylase is preincubated a second time for 30 min., before the standard activity assay is performed.

[4] = biological target: T1, acylase from Rhodococcus equi Ac6 (Rhodococcus (subgen. Prescottella) equi, UniProt A0A3S5Y3Z2); assay: Enzymatic hydrolysis of racemic amides with partially purified acylase from Rhodococcus equi Ac6; format: biochemical; parameters: e.e. (R)-Amide: unit not given here; details: for Selectivity E: enantioselectivity of the hydrolysis; for e.e. (S)-Amine: formed amine, analysed as acetamide; for e.e. (R)-Amide: unconverted amide, chiral HPLC
T1 construct: N-terminus […]
T1 sequence (A0A3S5Y3Z2 1-487): as the sequence (A0A3S5Y3Z2 entry or part of it) above
Protocol: (§1) To 10 ml of a 20 mM solution of each of the racemic amides shown below 1 in 0.1 M phosphate buffer pH 7.0, 5 ml (1.3 units) of the enzyme is added and the solutions are shaken at 100 rpm and 30° C. [drawing 10] [drawing 11]
(§2) When the conversion reaches about 50% (checked by HPLC) the solutions are acidified to pH 2 by adding 1 N HCl and extracted three times with dichloromethane to obtain the unconverted amides. The aqueous layers are neutralized with 1 N NaOH solution and extracted again three times with dichloromethane to recover the formed amines. Both organic phases are dried with MgSO4, filtered and the solvent is distilled off. The amides are used directly for optical purity determinations (HPLC), whereas the obtained amines are converted to the acetamides by adding 100 μl triethylamine and 100 μl acetic anhydride to each sample and then analyzed for the optical purity by "chiral" HPLC.
The experiments are carried out in the same manner as described in example 22.

[5] = test system: acylase from Arthrobacter aurescens Ac5R; assay: Enzymatic hydrolysis of racemic amides with highly purified acylase from Arthrobacter aurescens Ac5R; format: biochemical; details: for Selectivity E: enantioselectivity of the hydrolysis; for e.e. (R)-Amine: formed amine, analysed as acetamide by chiral HPLC; for e.e. (S)-Amide: unconverted amide, chiral HPLC
Protocol: as §1, §2

[6] = compound 1 mM, 20 mM (S)-N-acetyl-1-phenylethylamine, Tris-HCl pH 8, 120 min, none = 100
[7] = compound 10 mM, values in brackets: precipitates formed during the assay, none = 100
[8] = compound 1 mM, 30 min preincubation, Tris-HCl pH 8, none = 100
[9] = compound 10 mM, 30 min preincubation, values printed in brackets: precipitates formed, none = 100

| Structure (SMILES) | Relative activity (%) [1, 6] | Relative activity (%) ([2]; compound 1 mM, none = 100) | Relative activity (%) ([2]; compound 10 mM, none = 100) | Relative activity (%) [3, 8] | Relative activity (%) [3, 9] | Relative activity (%) [1, 7] | further results |
| --- | --- | --- | --- | --- | --- | --- | --- |
| N[C@@H](CCC(=O)N[C@@H](CS)C(=O)NCC(=O)O)C(=O)O [Glutathion, reduced] | – | – | – | – | – | – | Relative activity (%) ([1]; pH 8): 106; activity at 10000 µM [1]: 102%; Relative activity (%) [2]: 104 and 93; Relative activity (%) [3]: 112; Relative activity (%) ([3]; pH 8): 113 |
| NC(=O)CI [Iodoacetamide] | 87% | 104% | 67% | 96% | 29% | – | activity at 10000 µM [1, 7]: 32% |
| OCCS [Mercaptoethanol] | 104% | 106% | 101% | 115% | 69% | – | activity at 10000 µM [1, 7]: 108% |
| CC(=O)NC(C)CCc1ccccc1 (racemic) [Substrate 9a] | – | – | – | – | – | – | Selectivity E [4]: 230; e.e. (S)-Amine [4]: 92.1; e.e. (R)-Amide [4]: > 99.9 |
| CC(=O)NC(C)c1cccc(C#N)c1 (racemic) [Substrate 2a] | – | – | – | – | – | – | Selectivity E [4]: > 500; e.e. (S)-Amine [4]: > 99.9; e.e. (R)-Amide [4]: 85.5; Selectivity E [5]: 60; e.e. (R)-Amine [5]: 91.5; e.e. (S)-Amide [5]: 82.4 |
| [Cl][Pb][Cl] [PbCl2] | 95% | – | – | 79% | 9% | 99% | Relative activity (%), EDTA reactivation [3]: 102% |
| O=C(O)CC(O)(CC(=O)O)C(=O)O [Citrate] | 106% | 113% | 133% | 122% | 100% | – | activity at 10000 µM [1, 7]: 91% |
| [Cl][V]([Cl])[Cl] [VCl3] | 89% | – | – | 96% | 106% | 94% | – |
| [Cl][Ni][Cl] [NiCl2] | 40% | 87% | 80% | 14% | 0% | 10% | Relative activity (%), EDTA reactivation [3]: 85% |
| CC(=O)NC(C)c1ccc2ccccc2c1 (racemic) [Substrate 7a] | – | – | – | – | – | – | Selectivity E [4]: 88; e.e. (S)-Amine [4]: 97.4; e.e. (R)-Amide [4]: 16.4 |
| CC(=O)NC1CCc2ccccc21 (racemic) [Substrate 5a] | – | – | – | – | – | – | Selectivity E [4]: 65; e.e. (S)-Amine [4]: 88.2; e.e. (R)-Amide [4]: 96.7; Selectivity E [5]: 180; e.e. (R)-Amine [5]: 95.7; e.e. (S)-Amide [5]: 96.1 |
| O=S(=O)(F)Cc1ccccc1 [Phenylmethyl-sulfonyl fluoride] | 0% | – | – | 44% | – | 0% | Relative activity (%) ([1]; compound 0.01 mM): 17%; Relative activity (%) ([1]; compound 0.1 mM): 4.8%; Relative activity (%) ([2]; compound 0.01 mM): 0%; Relative activity (%) ([2]; compound 0.1 mM): 0% |
| [Cl][Cu][Cl] [CuCl2] | 88% | 66% | 50% | 50% | 0% | 41% | Relative activity (%), EDTA reactivation [3]: 86% |
| O=C(O)CN(CCN(CC(=O)O)CC(=O)O)CC(=O)O [EDTA] | – | – | – | – | – | – | Relative activity (%) ([1]; pH 8): 102; activity at 10000 µM [1]: 104%; Relative activity (%) [2]: 99 and 89; Relative activity (%) [3]: 121; Relative activity (%) ([3]; pH 8): 119 |
